How the values were obtained:
[1] = system: TuBEC (tumor-associated brain endothelial cells); assay type: cell-based; details: seven days; for TuBEC cell death, agent alone: TMZ 300 μM, CPT-11 100 μM, Eto 50 μM, EGCG 20 μM
Protocol: Cell death ELISA. EC were treated with etoposide (Calbiochem; La Jolla, Calif.), temozolomide (TMZ) (Schering-Plough; Kenilworth, N.J.), CPT-11 (Pharmacia; New York, N.Y.), the caspase inhibitor Q-VDOPH (Calbiochem), or EGCG (Sigma-Aldrich, St. Louis, Mo.), then assayed using the Cell Death Detection ELISA Plus kit (Roche Diagnostics; Indianapolis, Ind.) according to manufacturer's protocol. Percent death was calculated based on 100% positive cell death control.
Lentiviral construct. The sequences of siRNA, the isolation of human Grp78 cDNA and their subcloning into lentiviral constructs are previously described (Dong et al, Cancer Res., 65:5785-91, 2005). The sequences of the siRNA against human GRP78 are: siGRP78A: 5′-[…]-3′ (SEQ ID NO:1) and siGRP78B: 5′-[…]-3′ (SEQ ID NO:2). The sequences of the control siRNA are: sicontrol A: 5′-[…]-3′ (SEQ ID NO:3); sicontrol B: 5′-[…]-3′ (SEQ ID NO:4). For construction of lentivirus expressing GRP78, full length human GRP78 was prepared by reverse transcription of total HEK293T RNA followed by a 2-step PCR amplification and subcloning into the BamHI/XhoI sites of pcDNA3 (Invitrogen; Carlsbad, Calif.) to yield pcDNA3-hGRP78. Non-replicating lentiviral vectors co-expressing bicistronic human GRP78 and EGFP linked via the EMCV IRES were produced using the pLenti6/V5-D-TOPO and VIRAPOWER™ Lentivirus Expression system (Invitrogen, Carlsbad, Calif.). Initially, EGFP (Clonetech; Mountain View, Calif.) was inserted into the CMV driven expression cassette by TOPO cloning. […] The human GRP78 gene digested from pcDNA3-hGRP78 using XbaI and XhoI was ligated into pLenti6/EGFP between the CMV promoter and the EGFP gene. Next, an insert encoding the EMCV IRES, was generated by PCR from pIRES-EGFP (Clonetech) and subcloned into the XhoI/AgeI sites of pLenti6/huGRP78 EGFP. The IRES sequence was inserted between the human GRP78 gene and the EGFP allowing hGRP78 expression to be monitored by EGFP fluorescence. The manufacturer's manual was followed for TOPO cloning and production of viral particles. For infection, 10^4 cells were plated in 6-well dishes and infected with lentivirus at titers of 5×10^6 units/ml (TU/ml). Infected cells, monitored for GFP, were used when cultures were 100% GFP positive.
To test whether GRP78 confers drug resistance to TuBEC, TuBEC cultures were infected with lentivirus expressing siGRP78A and siCtr1A. Five days post infection, cultures were left untreated (media), or treated with CPT-11 [100 μM], etoposide (Eto) [50 μM] or temozolomide (MZ) [300 μM]. After treatment for seven days, the cells were analyzed for cytotoxicity.
To target GRP78 through a small molecule approach, TuBEC were incubated with EGCG alone or in combination with TMZ, CPT-11, and Eto. Cytotoxicity was measured after seven days (FIG. 3D).

[2] = system: BEC (normal human brain endothelial cells); assay: MTT cell viability assay, BEC; assay type: cell-based; details: 50 μM etoposide, 72 hours, vs DMSO vehicle
Protocol: (§1) Cell Culture. Endothelial cells (EC) were isolated from normal human brain tissue or human glioma tissue as previously described (Charalambous et al, J. Neurosurg., 102:699-705, 2005; Charalambous et al, Exp Cell Res., 313:1192-202, 2007). All experiments were performed on subconfluent (60-80%) cultures, in passages 4 to 6 only.
(§2) MTT cell viability assay. Cells were plated in triplicate (3×10^3 cells/well; […]) into 96-well plates coated with 1% gelatin. The 3-(4,5-dimethylthiazol-2-yl)-2,5-diphenyltetrazolium bromide (MTT) assay was performed according to the manufacturer's instructions (Sigma-Aldrich, St. Louis, Mo.). Percent cell viability was calculated relative to vehicle-treated controls.
(§3) To compare the sensitivities of TuBEC and BEC to chemotherapeutic agents, cells were treated with the topoisomerase II inhibitor, etoposide [1-50 μM] or DMSO (vehicle) [0.1%] for 72 hours, and cytoxicity was assessed using the MTT assay, which was performed according to manufacturer's protocol (Sigma Aldrich; St. Louis, Mo.).

[3] = system: TuBEC (tumor-associated brain endothelial cells); assay: MTT cell viability assay, TuBEC; assay type: cell-based, human; details: 50 μM etoposide, 72 hours, vs DMSO vehicle
Protocol: as §1, §2, §3

Compound: CCc1c2c(nc3ccc(OC(=O)N4CCC(N5CCCCC5)CC4)cc13)-c1cc3c(c(=O)n1C2)COC(=O)[C@]3(O)CC [CPT-11]
- TuBEC cell death, agent alone [1]: did not cause TuBEC cell death

Compound: CC(C)[C@H](NC(=O)c1ccc2ccccc2n1)C(=O)N[C@@H](CC(=O)O)C(=O)COc1c(F)cccc1F [Q-VDOPH]
- effect of caspase inhibition on cell death induced by CPT-11, Eto or TMZ with reduced GRP78 ([1]; Q-VDOPH [10 mM], TuBEC infected with siGRP78B): blocked cell death

Compound: COc1cc([C@@H]2c3cc4c(cc3[C@@H](O[C@@H]3O[C@@H]5CO[C@@H](C)O[C@H]5[C@H](O)[C@H]3O)[C@H]3COC(=O)[C@H]23)OCO4)cc(OC)c1O [etoposide]
- TuBEC cell death, agent alone [1]: did not cause TuBEC cell death
- BEC died (cytotoxicity, MTT assay) [2]: over 60%
- cell death of TuBEC (cytotoxicity, MTT assay) [3]: no significant cell death

Compound: (−)-epigallocatechin gallate [EGCG]
- cell death, EGCG in combination with CPT-11 ([1]; EGCG 20 μM + CPT-11 100 μM, p=0.005): 46%
- cell death, EGCG in combination with Eto ([1]; EGCG 20 μM + Eto 50 μM, p=0.001): 49%
- cell death, EGCG in combination with TMZ ([1]; EGCG 20 μM + TMZ 300 μM, p=0.003): 35%
- TuBEC cell death, agent alone [1]: did not cause TuBEC cell death

From patent US20100239596A1, “GRP78 AND TUMOR ANGIOGENESIS” (UNIVERSITY OF SOUTHERN CALIFORNIA, priority 2007, published 2010)
